Source: patent US9695155B2, “Herbicidal substituted pyrimidinyloxy benzene compounds” (E. I. DU PONT DE NEMOURS AND COMPANY, priority 2013, dated 2017)

Tests used:
blackgrass = experiment: Test D preemergence; assay type: in vivo, Alopecurus myosuroides; settings: Alopecurus myosuroides, pre-emergence
Summary of the method: (§1)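 Species were sown in silt loam for preemergence treatment, or grown in peat-based medium to the 1–4-leaf stage (2–18 cm) for postemergence sprays. Test chemicals were formulated in a non-phytotoxic solvent mixture with surfactant. After 7–21 days in a controlled environment, plants were rated visually against controls on a 0 (no effect) to 100 (complete control) scale.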

chickweed = experiment: Test D preemergence; assay type: in vivo, Stellaria media; settings: Stellaria media, pre-emergence
Summary of the method: as §1

bromegrass, downy = experiment: Test D preemergence; assay type: in vivo, Bromus tectorum; settings: Bromus tectorum, pre-emergence
Summary of the method: as §1

Italian ryegrass = experiment: Test D preemergence; assay type: in vivo, Lolium multiflorum; settings: Lolium multiflorum, pre-emergence
Summary of the method: as §1

spring barley = experiment: Test D preemergence; assay type: in vivo, Hordeum vulgare; settings: Hordeum vulgare, pre-emergence
Summary of the method: as §1

wild oat = experiment: Test D preemergence; assay type: in vivo, Avena fatua; settings: Avena fatua, pre-emergence
Summary of the method: as §1

field poppy = experiment: Test D postemergence; assay type: in vivo, Papaver rhoeas; settings: Papaver rhoeas, post-emergence
Summary of the method: as §1

windgrass = experiment: Test D postemergence; assay type: in vivo, Apera spica-venti; settings: Apera spica-venti, post-emergence
Summary of the method: as §1

wild poinsettia = experiment: Test E postemergence; assay type: in vivo, Euphorbia heterophylla; settings: Euphorbia heterophylla, post-emergence, read-out: Plant response rating, Poinsettia, Wild
Summary of the method: (§2)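 Compound in a non-phytotoxic solvent mixture with surfactant was applied preemergence to seeds in silt loam soil, or postemergence to plants 2 to 18 cm tall grown in peat-based potting medium. Plants were kept in a greenhouse for 14 to 21 days, then rated visually against untreated controls on a 0 (no effect) to 100 (complete control) scale.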

fall panicum = experiment: Test E postemergence; assay type: in vivo, Panicum dichotomiflorum; settings: Panicum dichotomiflorum, post-emergence, read-out: Plant response rating, Panicum, Fall
Excerpt: Seeds of plant species selected from corn (Zea mays), soybean (Glycine max), velvetleaf (Abutilon theophrasti), lambsquarters (Chenopodium album), wild poinsettia (Euphorbia heterophylla), palmer pigweed (Amaranthus palmeri), waterhemp (common waterhemp, Amaranthus rudis), surinam grass (Brachiaria decumbens), large (Lg) crabgrass (Digitaria sanguinalis), Brazilian crabgrass (Digitaria horizontalis), fall panicum (Panicum dichotomiflorum), giant foxtail (Setaria faberii), green foxtail (Setaria viridis), goosegrass (Eleusine indica), johnsongrass (Sorghum halepense), ragweed (common ragweed, Ambrosia elatior), barnyardgrass (Echinochloa crus-galli), sandbur (southern sandbur, Cenchrus echinatus), arrowleaf sida (Sida rhombifolia), Italian ryegrass (Lolium multiflorum), dayflower (Virginia (VA) dayflower, Commelina virginica), field bindweed (Convolvulus arvensis), morningglory (Ipomoea coccinea), nightshade (eastern black nightshade, Solanum ptycanthum), kochia (Kochia scoparia), yellow nutsedge (Cyperus esculentus), cocklebur (common cocklebur, Xanthium strumarium), smartweed (ladysthumb smartweed, and hairy beggarticks (Bidens pilosa), were planted into a silt loam soil and treated preemergence with test chemicals formulated in a non-phytotoxic solvent mixture which included a surfactant.
At the same time, plants from these crop and weed species and also horseweed (Canada horseweed, Conyza canadensis), waterhemp_RES1, (ALS & Triazine resistant common waterhemp, Amaranthus rudis), and waterhemp_RES2, (ALS & HPPD resistant common waterhemp, Amaranthus rudis) were planted in pots containing Redi-Earth® planting medium (Scotts Company, 14111 Scottslawn Road, Marysville, Ohio 43041) comprising spaghnum peat moss, vermiculite, wetting agent and starter nutrients were treated with postemergence applications of test chemicals formulated in the same manner. Plants ranged in height from 2 to 18 cm for postemergence treatments (1- to 4-leaf stage). Treated plants and controls were maintained in a greenhouse for 14 to 21 days, after which time all species were compared to controls and visually evaluated. Plant response ratings, summarized in Table E, are based on a scale of 0 to 100 where 0 is no effect and 100 is complete control. A dash (-) response means no test result.

hairy beggarticks = experiment: Test E postemergence; assay type: in vivo, Bidens pilosa; settings: Bidens pilosa, post-emergence, read-out: Plant response rating, Beggarticks
Summary of the method: as §2

[1] = Postemergence, 31 g ai/ha, scale 0 to 100
[2] = Postemergence, 62 g ai/ha, scale 0 to 100
[3] = Postemergence, 125 g ai/ha, scale 0 to 100
[4] = postemergence, 8 g ai/ha, scale 0 to 100, 0 no effect, 100 complete control
[5] = postemergence, 16 g ai/ha, scale 0 to 100, 0 no effect, 100 complete control

SMILES: Clc1cnc(Oc2ccccc2-n2cc(Br)cn2)nc1 [Compound 7, 2-[2-(4-bromo-1H-pyrazol-1-yl)phenoxy]-5-chloropyrimidine]
- pest or weed control at 16 g/ha (blackgrass; 16 g ai/ha, scale 0 (no effect) to 100 (complete control), read-out: Plant response rating, Blackgrass): 0%
- pest or weed control at 31 g/ha (blackgrass; 31 g ai/ha, scale 0-100, read-out: Plant response rating, Blackgrass): 0%
- pest or weed control at 62 g/ha (blackgrass; 62 g ai/ha, scale 0-100, read-out: Plant response rating, Blackgrass): 0%
- pest or weed control at 125 g/ha (blackgrass; 125 g ai/ha, scale 0-100, read-out: Plant response rating, Blackgrass): 0%
- pest or weed control at 250 g/ha (blackgrass; 250 g ai/ha, scale 0-100, read-out: Plant response rating, Blackgrass): 15%
- pest or weed control at 16 g/ha (chickweed; 16 g ai/ha, scale 0 (no effect) to 100 (complete control), read-out: Plant response rating, Chickweed): 0%
- pest or weed control at 31 g/ha (chickweed; 31 g ai/ha, scale 0-100, read-out: Plant response rating, Chickweed): 0%
- pest or weed control at 62 g/ha (chickweed; 62 g ai/ha, scale 0-100, read-out: Plant response rating, Chickweed): 10%
- pest or weed control at 125 g/ha (chickweed; 125 g ai/ha, scale 0-100, read-out: Plant response rating, Chickweed): 90%
- pest or weed control at 250 g/ha (chickweed; 250 g ai/ha, scale 0-100, read-out: Plant response rating, Chickweed): 95%
- pest or weed control at 16 g/ha (bromegrass, downy; 16 g ai/ha, scale 0 (no effect) to 100 (complete control), read-out: Plant response rating, Bromegrass, Downy): 0%
- pest or weed control at 31 g/ha (bromegrass, downy; 31 g ai/ha, scale 0-100, read-out: Plant response rating, Bromegrass, Downy): 0%
- pest or weed control at 62 g/ha (bromegrass, downy; 62 g ai/ha, scale 0-100, read-out: Plant response rating, Bromegrass, Downy): 0%
- pest or weed control at 125 g/ha (bromegrass, downy; 125 g ai/ha, scale 0-100, read-out: Plant response rating, Bromegrass, Downy): 0%
- pest or weed control at 250 g/ha (bromegrass, downy; 250 g ai/ha, scale 0-100, read-out: Plant response rating, Bromegrass, Downy): 0%
- pest or weed control at 16 g/ha (Italian ryegrass; 16 g ai/ha, scale 0 (no effect) to 100 (complete control), read-out: Plant response rating, Ryegrass, Italian): 0%
- pest or weed control at 31 g/ha (Italian ryegrass; 31 g ai/ha, scale 0 (no effect) to 100 (complete control), read-out: Plant response rating, Ryegrass, Italian): 0%
- pest or weed control at 62 g/ha (Italian ryegrass; 62 g ai/ha, scale 0-100, read-out: Plant response rating, Ryegrass, Italian): 0%
- pest or weed control at 125 g/ha (Italian ryegrass; 125 g ai/ha, scale 0-100, read-out: Plant response rating, Ryegrass, Italian): 0%
- pest or weed control at 250 g/ha (Italian ryegrass; 250 g ai/ha, scale 0-100, read-out: Plant response rating, Ryegrass, Italian): 5%
- plant injury at 16 g/ha (spring barley; 16 g ai/ha, scale 0 (no effect) to 100 (complete control), read-out: Plant response rating, Barley, Spring): 0%
- plant injury at 31 g/ha (spring barley; 31 g ai/ha, scale 0-100, read-out: Plant response rating, Barley, Spring): 0%
- plant injury at 62 g/ha (spring barley; 62 g ai/ha, scale 0-100, read-out: Plant response rating, Barley, Spring): 0%
- plant injury at 125 g/ha (spring barley; 125 g ai/ha, scale 0-100, read-out: Plant response rating, Barley, Spring): 0%
- plant injury at 250 g/ha (spring barley; 250 g ai/ha, scale 0-100, read-out: Plant response rating, Barley, Spring): 0%
- pest or weed control at 16 g/ha (wild oat; 16 g ai/ha, scale 0 (no effect) to 100 (complete control), read-out: Plant response rating, Oat, Wild): 0%
- pest or weed control at 31 g/ha (wild oat; 31 g ai/ha, scale 0-100, read-out: Plant response rating, Oat, Wild): 0%
- pest or weed control at 62 g/ha (wild oat; 62 g ai/ha, scale 0-100, read-out: Plant response rating, Oat, Wild): 0%
- pest or weed control at 125 g/ha (wild oat; 125 g ai/ha, scale 0-100, read-out: Plant response rating, Oat, Wild): 10%
- pest or weed control at 250 g/ha (wild oat; 250 g ai/ha, scale 0-100, read-out: Plant response rating, Oat, Wild): 10%
- pest or weed control at 16 g/ha (field poppy; 16 g ai/ha, scale 0-100, read-out: Plant response rating, Field Poppy): 10%
- pest or weed control at 31 g/ha (field poppy; 31 g ai/ha, scale 0 to 100 (0 no effect, 100 complete control), read-out: Plant response rating, Field Poppy): 20%
- pest or weed control at 62 g/ha (field poppy; 62 g ai/ha, scale 0 to 100 (0 no effect, 100 complete control), read-out: Plant response rating, Field Poppy): 50%
- pest or weed control at 125 g/ha (field poppy; 125 g ai/ha, scale 0 to 100 (0 no effect, 100 complete control), read-out: Plant response rating, Field Poppy): 50%
- pest or weed control at 250 g/ha (field poppy; 250 g ai/ha, scale 0 to 100 (0 no effect, 100 complete control), read-out: Plant response rating, Field Poppy): 60%
- pest or weed control at 16 g/ha (windgrass; 16 g ai/ha, scale 0-100, read-out: Plant response rating, Windgrass): 0%
- pest or weed control at 31 g/ha (windgrass; 31 g ai/ha, scale 0 to 100 (0 no effect, 100 complete control), read-out: Plant response rating, Windgrass): 0%
- pest or weed control at 62 g/ha (windgrass; 62 g ai/ha, scale 0 to 100 (0 no effect, 100 complete control), read-out: Plant response rating, Windgrass): 0%
- pest or weed control at 125 g/ha (windgrass; 125 g ai/ha, scale 0 to 100 (0 no effect, 100 complete control), read-out: Plant response rating, Windgrass): 10%
- pest or weed control at 250 g/ha (windgrass; 250 g ai/ha, scale 0 to 100 (0 no effect, 100 complete control), read-out: Plant response rating, Windgrass): 25%
- pest or weed control at 31 g/ha (wild poinsettia; [1]): 30%
- pest or weed control at 62 g/ha (wild poinsettia; [2]): 60%
- pest or weed control at 125 g/ha (wild poinsettia; [3]): 60%
- pest or weed control at 8 g/ha (wild poinsettia; [4]): 0%
- pest or weed control at 16 g/ha (wild poinsettia; [5]): 30%
- pest or weed control at 31 g/ha (fall panicum; [1]): 15%
- pest or weed control at 62 g/ha (fall panicum; [2]): 50%
- pest or weed control at 125 g/ha (fall panicum; [3]): 0%
- pest or weed control at 8 g/ha (fall panicum; [4]): 0%
- pest or weed control at 16 g/ha (fall panicum; [5]): 0%
- pest or weed control at 31 g/ha (hairy beggarticks; [1]): 40%
- pest or weed control at 62 g/ha (hairy beggarticks; [2]): 50%
- pest or weed control at 125 g/ha (hairy beggarticks; [3]): 60%
- pest or weed control at 8 g/ha (hairy beggarticks; [4]): 25%
- pest or weed control at 16 g/ha (hairy beggarticks; [5]): 35%
